Results as given in ChEMBL document CHEMBL1148436, “Structural determinants for high 5-HT(2A) receptor affinity of spiro[9,10-dihydroanthracene]-9,3(')-pyrrolidine (SpAMDA)” (Bioorg Med Chem Lett, 2004).

Assays:
[1] = target: Sodium-dependent noradrenaline transporter (Homo sapiens, UniProt P23975); test: Binding affinity towards Norepinephrine transporter using [3H]nisoxitine as radioligand
[2] = target: Sodium-dependent serotonin transporter (Homo sapiens, UniProt P31645); test: Binding affinity towards Serotonin transporter using [3H]paroxetine as radioligand
[3] = target: 5-hydroxytryptamine receptor 2A (Homo sapiens, UniProt P28223); test: Binding affinity towards 5-hydroxytryptamine 2A receptor using [3H]ketanserin
[4] = target: T1, 5-hydroxytryptamine receptor 2C (Homo sapiens, UniProt P28335); test: Binding affinity towards 5-hydroxytryptamine 2C receptor using [3H]mesulergine as radioligand
T1 sequence (P28335 whole entry): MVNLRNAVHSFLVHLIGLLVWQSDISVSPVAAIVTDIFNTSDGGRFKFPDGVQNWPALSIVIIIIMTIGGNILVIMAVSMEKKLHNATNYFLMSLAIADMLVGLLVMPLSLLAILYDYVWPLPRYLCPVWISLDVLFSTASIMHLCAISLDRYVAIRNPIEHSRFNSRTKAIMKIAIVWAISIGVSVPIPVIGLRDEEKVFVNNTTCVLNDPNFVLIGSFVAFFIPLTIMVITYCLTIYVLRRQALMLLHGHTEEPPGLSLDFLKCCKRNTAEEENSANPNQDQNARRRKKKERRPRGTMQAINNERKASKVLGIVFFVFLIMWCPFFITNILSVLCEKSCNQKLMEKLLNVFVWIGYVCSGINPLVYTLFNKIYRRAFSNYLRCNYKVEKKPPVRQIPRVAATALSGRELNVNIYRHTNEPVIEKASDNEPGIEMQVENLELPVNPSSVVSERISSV

Compound | Ki [3] | other results
c1ccc2c(c1)Cc1ccccc1C21CCNC1 | – | Ki [1]: 10000 nM; Ki [2]: 3900 nM
c1ccc2c(c1)CCc1ccccc1C21CCNC1 | 110 nM | –
c1ccc2c(c1)CCCC21CCNC1 (stereo not drawn) | > 10000 nM | –
c1ccc2c(c1)Cc1ccccc1C21CCCNC1 | 99 nM | –
c1ccc(C2(c3ccccc3)CCNC2)cc1 | 4610 nM | –
CN1CCC(=C2c3ccccc3C=Cc3ccccc32)CC1 [CYPROHEPTADINE] | – | Ki [4]: 11 nM
CN(C)CCCN1c2ccccc2CCc2ccccc21 [IMIPRAMINE] | – | Ki [4]: 160 nM
